# Measurements reported in US7709504B2, “Use of Substituted 2-thio-3,5-dicyano-4-phenyl-6-aminopyridines in the treatment of nausea and vomiting” (Bayer Schering Pharma Aktiengesellschaft, priority 2004, dated 2010).
# System: ferrets
# Experiment: Emetine-induced retching tests on ferrets
# Format: in vivo
# Settings: for antiemetic effect: test substance 0.3 and 3.0 mg/kg p.o. 60 min before emetine
# Protocol: Emetine-Induced Retching Tests on Ferrets:
# The determination of the antiemetic action follows the method described by Gardner et al. in Brit. J. Pharmacol., 116, 3158-3163, 1995.
# Sixty minutes before administration of the test substance, the ferrets were accommodated in individual stainless steel cages (40×50×34 cm) having a grid floor. The animals were then treated with emetine (2 mg/kg p.o.) and observed immediately for a period of 2 hours with a view to the following points: • number of ferrets which show signs of retching and vomiting; • latency up to initial retching (hours, minutes, seconds); • latency up to initial vomiting (hours, minutes, seconds); • retching (how often); • vomiting (how often); • number of nauseas; • average duration of the vomiting periods (minutes, seconds); • serious side effects on behavior.
# Retching is defined according to the invention as a rhythmical respiratory movement against closed vocal cords, while vomiting is defined according to the invention as a forced expulsion of the higher stomach and intestinal contents.
# 32 ferrets were investigated. The substance tested was administered in two doses, orally sixty minutes before emetine administration, and compared to a control group. Ondansetrone (16 mg/kg p.o.) was given under the same experimental conditions and served as a reference substance.
# The 32 ferrets were employed repeatedly in order to investigate 4 test substances. The administration scheme for the three-week experiment looked as follows:
# The amounts were analyzed and the student's test was used in the comparison of the treated groups with the control group.
# The […] data were analyzed, Fisher's exact probability test being used for the comparison of the treated groups with the control group.
# [1] = ferrets given emetine 2 mg/kg p.o., vs control group
# [2] = 16 mg/kg p.o., ferrets, emetine 2 mg/kg p.o., 2 h observation
structure (smiles),measurement,setting,value
N#Cc1c(NCCO)nc(SCc2ccccc2)c(C#N)c1-c1ccccc1 [Substance 1],antiemetic effect,[1],no significant antiemetic effect
COCCOc1ccc(-c2c(C#N)c(N)nc(SCc3cccnc3)c2C#N)cc1 [Substance 2],antiemetic effect,[1],no significant antiemetic effect
CC(=O)Nc1ccc(-c2c(C#N)c(N)nc(SCc3ccccn3)c2C#N)cc1 [Substance 3],prevention of emetine-induced vomiting,"ferrets given emetine 2 mg/kg p.o., test substance in two doses orally 60 min before emetine, vs control group",significantly prevented
"Cc1nccn1CC1CCc2c(c3ccccc3n2C)C1=O (centres unmarked) [ondansetrone, Ondansetrone, reference compound]",number of ferrets in which emesis was induced,[2],one of 16
same,quantitative occurrence of retching and vomiting (induced by emetine),[2],significantly reduced
